Laboratory results published in US9603899B2, “PDGF induced cell homing” (The Trustees of Columbia University in the City of New York, priority 2010, dated 2017).
Entries after “also recorded” stand apart in the source; their conditions may differ.

What was measured:
[1] = tested on: alveolar stem/progenitor cells; test: Transwell migration assay; type: cell-based, human; conditions: for migration / recruitment of alveolar stem/progenitor cells: negative control serum-free medium, positive control DMEM with 15% FBS
Protocol: Transwell migration assay was performed to determine PDGF's ability to recruit alveolar stem/progenitor cells in a dose-response manner.

[2] = tested on: alveolar stem/progenitor cells; conditions: 15 μM; chemically defined medium, calcein AM label

Compound | migration / recruitment of alveolar stem/progenitor cells ([1]; Transwell migration) | chemoattractant efficacy compared among PDGF isoforms ([1]; Transwell migration, compared with other PDGF isoforms and positive control 15% FBS) | PDGF concentration at which highest cell migration was observed ([1]; tested at 10 ng/ml, 25 ng/ml and 50 ng/ml) [ng/mL] | capillary tubular formation [2]
PDGF-AB: PDGF isoform composed of one A and one B chain | resulted in cell migration |  |  | 
PDGF-BB: PDGF isoform composed of two B chains | induces robust, dose-dependent migration; also recorded: resulted in cell migration | most potent chemoattractant among all PDGF isoforms; also recorded: most robust efficacy, which was equal to positive control group with 15% fetal bovine serum; also recorded: higher rates of cell migration |  | 
platelet-derived growth factor [PDGF] | induces robust, dose-dependent migration; also recorded: cell migration was shown; also recorded: induced dose-dependent migration |  | 50 | 
C[S+]([O-])CCCCN=C=S (stereo not shown) [sulforaphane] |  |  |  | blocked
PDGF-AA: PDGF isoform composed of two A chains | resulted in cell migration |  |  | 
